Measurements: publication PMC6272846, “Synthesis and p38 Inhibitory Activity of Some Novel Substituted N,N′-Diarylurea Derivatives” (Molecules, 2016)

Legend:
MAPK14/p38α = MAPK14/p38α (Homo sapiens, UniProt Q16539); experiment: p38α MAP kinase activity, phosphorylation of ATF-2 (TR-FRET); type: biochemical; details: enzyme, GFP-ATF2 substrate, 90 μM ATP
Protocol: Kinase reaction buffer was composed of 50 mM HEPES (pH 7.5), 0.01% BRIJ-35, 10 mM MgCl2 and 1 mM EGTA. Prepared MAPK14/p38α in 1× kinase buffer with concentration at 500 ng/mL. A 2-fold serial dilution was performed using 1× kinase buffer from 500 ng/mL using 16 dose points. […] The reaction was started by adding 5 μL of the GFP-ATF2(19–96) substrate and ATP solution into each well of the assay plate. The final starting concentration of MAPK14/p38α was 250ng/ml, and the final GFP-ATF2 and ATP concentrations were 0.4 μM and 90 μM, respectively. The assay plate was sealed and incubated for 1 hour at room temperature (RT). Antibody solution (1 mL) was prepared from 20 mM EDTA and 4 nM Tb-antipATF2 (pThr71) antibody in TR-FRET dilution buffer. Antibody solution (10 μL) was added into each well of the assay plate and mixed gently. The final EDTA concentration was 10 mM, and the final Tb-antipATF2 (pThr71) concentration was 2 nM. The assay plate was sealed and incubated for 30 minutes at RT.
Inhibitor in 0.5% DMSO (2 μL/well) at 5-fold the final assay concentration was added into a 384-well assay plate. […] MAPK14/p38α (4 μL/well) was added to each well of the 384-well assay plate and incubated for 15 min at RT. To start the reaction, substrate GFP-ATF2 (19–96) and ATP (4 μL/well) were added into kinase reaction buffer. […] The resulting TR-FRET emission ratio was plotted against the concentration of inhibitor, and the data fitted to a sigmoidal dose-response curve with a variable slope. The IC50 concentration was calculated from the curve.

MAPKAPK2 = experiment: Inhibition of MAPKAPK2 in GFP-MAPKAPk2_BHK cell model (nuclear translocation); type: cell-based; details: GFP-MAPKAPk2_BHK cells
Protocol: In order to study p38α inhibition in a cell system, we investigated the ability of all compounds to inhibit the phosphorylation of mitogen-activated protein-kinase-activated protein kinase 2 (MAPKAPK2). Each compound was prepared at […] concentrations (1, 3, 10 and 30 nM, 0.1 and 0.3 μM), and the percentages of inhibition were calculated from the numbers of cells after treatment with the different compounds.
GFP-MAPKAPk2_BHK cells were cultured in 96-well plates (2.0 × 10^4/100 μL/well) containing 10% heat-inactivated foetal bovine serum (FBS) and 1 mg/mL G418 at 37 °C in humidified air containing 5% CO2 for 18–24 h. The cells were washed with nutrient solution (100 μL/well) and changed to the compound liquid (100 μL/well). Experiments were set up with the control, and the compound was repeated at each concentration in three wells. The cells were cultured in 96-well plates at 37 °C in humidified air containing 5% CO2 for 90 min. The cells were washed with the dye solution (20 μL/well), and the dyed cells were held for 1 hour at room temperature in the dye liquid. Analysis of nuclear translocation and calculation of the ability of the compounds to inhibit nuclear translocation was performed using the IN Cell Analyzer 1000 Nuclear Trafficking Analysis Module System (GE, Madison, WI, USA). The cultured cells were treated with the obtained compounds in […] concentration grads (1, 3, 10 and 30 nM, 0.1 and 0.3 μM). The inhibitory percentage can be calculated using the amounts of cells after the disposition of the different compounds.

[1] = test system: TNF-α release from THP-1 cells; experiment: Inhibition of TNF-α release from THP-1 cells after LPS stimulation; type: cell-based; details: Homo sapiens; LPS-stimulated THP-1 cells
Protocol: LPS stock was prepared at 1 mg/mL by adding 1 mL sterile endotoxin-free water to 1 mg LPS powder. The LPS stock was aliquoted and stored at −20 °C. […] An amount of 100 K THP-1 cells were seeded into a 96-well cell culture plate in 100 μL of test medium. […] A total of 10 μL compound was added to the plate with cells, and the cells were incubated for 1 hour at 37 °C. An amount of 10 μL/well LPS was added to stimulate the cells. The final LPS concentration was 300 ng/mL, and the DMSO concentration was 0.3%. […]. The plate was incubated for 5 hours at 37 °C. […] Three replicates were used for each dose. At the 5th hour, the TNF-α in the supernatants and standard curve samples was determined using the HTRF kit. […] Amounts of 5 μL Anti-TNF-α-Cryptate (Invitrogen, Carlsbad, CA, USA) and 5 μL Anti-TNFα-XL665 (Invitrogen) were added, and the plate was incubated at RT for 15 h. The plate was read on an Envision instrument (PerkinElmer) and the IC50 was calculated.

[2] = molecular target: p38α mitogen-activated protein kinase (Homo sapiens, UniProt Q16539); experiment: Surface plasmon resonance (Biacore) binding to p38α; details: SPR, 25 °C
Protocol: To assess the binding ability between the compounds and p38α protein, we used SPR for kinase inhibitor interaction studies.
The Biacore instrument uses a technique based on surface plasmon resonance to follow the real-time binding of compounds to immobilized proteins on a carboxymethyl dextran surface in a liquid milieu. Compounds were stored as 10 mM stock solutions in 100% dimethyl sulfoxide (DMSO). All light-sensitive compounds were handled under yellow protective light. […] ATP was dissolved directly in running buffer to make a 10 mM solution. The run was started with five start-up cycles in which running buffer was injected (instead of a sample) followed by sample injection cycles. Zero concentration samples were used as blanks. A typical analysis cycle consisted of a 60 s sample injection (30 μL/min), 120–200 s of buffer flow (dissociation phase), followed by a needle and tubing wash with 50% DMSO and buffer, and finally, a 30 s buffer injection to check for sample carry over. The flow cell temperature was 25 °C. Between sample series, a solvent correction cycle was run according to the instrument manual to adjust for referencing errors due to refractive index mismatches between running buffer and samples [35].

[3] = test system: TNF-α production, human whole blood; design: method as in PMID 11896401; details: read-out: IC50, inhibition of LPS-induced TNF-α production; cited from earlier work
TNF-α production = test system: TNF-α production; design: method as in PMID 11896401; details: 30 mg/kg p.o.; cited from earlier work

p38α mitogen-activated protein kinase, sequence (Q16539 whole entry): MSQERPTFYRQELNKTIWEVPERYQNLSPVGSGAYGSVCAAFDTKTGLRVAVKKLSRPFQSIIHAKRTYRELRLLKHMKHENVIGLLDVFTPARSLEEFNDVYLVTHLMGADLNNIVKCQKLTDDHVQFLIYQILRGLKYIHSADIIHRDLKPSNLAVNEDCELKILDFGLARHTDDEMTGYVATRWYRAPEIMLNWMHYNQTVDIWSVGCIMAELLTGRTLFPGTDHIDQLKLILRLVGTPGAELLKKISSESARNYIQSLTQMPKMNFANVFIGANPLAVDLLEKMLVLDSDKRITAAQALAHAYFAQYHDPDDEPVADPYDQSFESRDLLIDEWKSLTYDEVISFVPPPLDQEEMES
MAPK14/p38α, sequence (Q16539 whole entry): as above

SMILES	IC50 (MAPK14/p38α)	IC50 (MAPKAPK2)	IC50 [1]	Kd [2]	IC50 [3]	inhibition of LPS-induced TNF-α production in mice in vivo (TNF-α production)
Cc1ccc(-n2nc(C(C)(C)C)cc2NC(=O)NCc2ccccc2Oc2ccc3[nH]ncc3c2)cc1 [25a, 1-(2-((1H-Indazol-5-yl)oxy)benzyl)-3-(3-(tert-butyl)-1-(p-tolyl)-1H-pyrazol-5-yl)urea]	0.47 ± 0.02 nM	1.36 ± 0.31 nM	0.73 ± 0.13 nM	15.4 nM	–	–
CC(C)(C)c1cc(NC(=O)NCc2ccccc2Oc2ccc3[nH]ncc3c2)n(-c2ccccc2)n1 [25b, 1-(2-((1H-Indazol-5-yl)oxy)benzyl)-3-(3-(tert-butyl)-1-phenyl-1H-pyrazol-5-yl)urea]	0.8 ± 0.03 nM	2.45 ± 0.59 nM	1 ± 0.09 nM	382 nM	–	–
Cc1cccc(-n2nc(C(C)(C)C)cc2NC(=O)NCc2ccccc2Oc2ccc3[nH]ncc3c2)c1 [25c, 1-(2-((1H-Indazol-5-yl)oxy)benzyl)-3-(3-(tert-butyl)-1-(m-tolyl)-1H-pyrazol-5-yl)urea]	0.77 ± 0.08 nM	6.6 ± 0.66 nM	1.06 ± 0.05 nM	421 nM	–	–
CC(C)(C)c1cc(NC(=O)NCc2ccccc2Oc2ccc3[nH]ncc3c2)n(-c2ccc([N+](=O)[O-])cc2)n1 [25h, 1-(2-((1H-Indazol-5-yl)oxy)benzyl)-3-(3-(tert-butyl)-1-(4-nitrophenyl)-1H-pyrazol-5-yl)urea]	0.82 ± 0.01 nM	2.64 ± 0.56 nM	1.79 ± 0.48 nM	221 nM	–	–
CC(C)(C)c1cc(NC(=O)NCc2ccccc2Oc2ccc3c(c2)CCCC3O)n(-c2ccc([N+](=O)[O-])cc2)n1 (stereo not drawn) [27b, 1-(3-(tert-Butyl)-1-(4-nitrophenyl)-1H-pyrazol-5-yl)-3-(2-((5-hydroxy-5,6,7,8-tetrahydronaphthalen-2-yl)-oxy)benzyl)urea]	3.87 ± 0.43 nM	98.5 ± 5.89 nM	27.5 ± 1.21 nM	–	–	–
CC(C)(C)c1cc(NC(=O)NCc2ccccc2Oc2ccc3c(c2)CCCC3O)n(-c2ccccc2)n1 (stereo not drawn) [27c, 1-(3-(tert-Butyl)-1-phenyl-1H-pyrazol-5-yl)-3-(2-((5-hydroxy-5,6,7,8-tetrahydronaphthalen-2-yl)oxy)-benzyl)urea]	3.73 ± 0.32 nM	124 ± 6.64 nM	18.4 ± 4.35 nM	–	–	–
Cc1ccc(-n2nc(C(C)(C)C)cc2NC(=O)Nc2ccc(OCCN3CCOCC3)c3ccccc23)cc1 [BIRB-796, 1-(5-tert-butyl-2-p-tolyl-2h-pyrazol-3-yl)-3-[4-(2-morpholin-4-yl-ethoxy)naph-thalen-1-yl]urea]	–	–	–	–	780 nM	84%
